Source: patent publication EP4257133A1, “OXO-AZAHETEROCYCLIC DERIVATIVES FOR USE IN THE TREATMENT OF MALARIA” (Institut Pasteur, priority 2022, dated 2023)
pIC50: −log10 of the molar value. Like-named read-outs stand apart in the source and are kept apart here.

Experiments:
P. falciparum 3D7 = assay: Blood stage progression and growth assay, flow cytometry with SYBR Green I; format: cell-based; conditions: for pIC50: Plasmodium falciparum, 3D7, n = 3 in triplicates
Description: (§1) In early and late trophozoites, multiple PRDX6 foci (white arrow heads) were observed adjacent to the parasite FV. DNA, Hoechst 33342 (nuclei). Scale bars: 5 µm. (B-F) Immuno-transmission electron microscopy (TEM) using monoclonal mouse anti-PRDX6 antibody. (B) Uninfected RBC showing even cytosolic staining for PRDX6. (C-F) P. falciparum-infected RBCs show co-localization of PRDX6 and hemoglobin in vesicles at the inner surface of the parasite plasma membrane in structures that resemble cytostomes (black arrows), at the FV (white arrows), or within the parasite cytosol (striped grey arrow). Scale bars: 500 nm. […] Parasites were treated at ring stage and growth to schizont stage in the same cycle ("progression") or to next generation rings ("growth") was scored by flow cytometry using DNA intercalating fluorescent dye SYBR Green I. • Figure 3 concerns the radioactive PLA2 activity assay using phosphorylated recombinant human PRDX6 in presence or absence of Darapladib. Darapladib inhibits PLA2 activity of PRDX6 with IC50 of ≈0.5µM. • Figure 4 is related to the co-treatment of ART-resistant parasites with artemisinin and Darapladib synergistically reduces parasite survival. (A) Ring stage survival assays (RSA) (Witkowski et al., Lancet Infect. Dis. 13, 1043-1049 (2013)) with Darapladib (Dar) and Dihydroartemisinin (DHA) against ART-resistant P. falciparum strains. For detailed data regarding synergism, cf. Table 1. […] The thermal shift of the melting temperature of PRDX6 in presence of Darapladib was determined using a SYPRO orange-based differential scanning fluorimetry (DSF) assay. ΔTm > 0.5°C was considered significant. […]
Darapladib was also tested in vitro for its ability to block P. falciparum blood stage growth and progression from rings to schizonts. Synchronous P. falciparum 3D7 cultures were treated at the ring stage and effects on ring to schizont development ("progression") and multiplication following completion of a full blood stage cycle ("growth") were assessed by flow cytometry using the DNA intercalating fluorescent dye SYBR Green I. […]

3815 strain [1] = assay: Ring stage survival assay (RSA); format: cell-based, P. falciparum; conditions: mean ± SD of three experiments
Description: (§2) In early and late trophozoites, multiple PRDX6 foci (white arrow heads) were observed adjacent to the parasite FV. DNA, Hoechst 33342 (nuclei). Scale bars: 5 µm. (B-F) Immuno-transmission electron microscopy (TEM) using monoclonal mouse anti-PRDX6 antibody. (B) Uninfected RBC showing even cytosolic staining for PRDX6. (C-F) P. falciparum-infected RBCs show co-localization of PRDX6 and hemoglobin in vesicles at the inner surface of the parasite plasma membrane in structures that resemble cytostomes (black arrows), at the FV (white arrows), or within the parasite cytosol (striped grey arrow). Scale bars: 500 nm. […] Parasites were treated at ring stage and growth to schizont stage in the same cycle ("progression") or to next generation rings ("growth") was scored by flow cytometry using DNA intercalating fluorescent dye SYBR Green I. • Figure 3 concerns the radioactive PLA2 activity assay using phosphorylated recombinant human PRDX6 in presence or absence of Darapladib. Darapladib inhibits PLA2 activity of PRDX6 with IC50 of ≈0.5µM. • Figure 4 is related to the co-treatment of ART-resistant parasites with artemisinin and Darapladib synergistically reduces parasite survival. (A) Ring stage survival assays (RSA) (Witkowski et al., Lancet Infect. Dis. 13, 1043-1049 (2013)) with Darapladib (Dar) and Dihydroartemisinin (DHA) against ART-resistant P. falciparum strains. For detailed data regarding synergism, cf. Table 1. (B) Growth/Progression assay with continuous Darapladib treatment against ART-resistant P. falciparum strains. Data are means ± SD of three independent experiments, unpaired t-tests. […] The thermal shift of the melting temperature of PRDX6 in presence of Darapladib was determined using a SYPRO orange-based differential scanning fluorimetry (DSF) assay. ΔTm > 0.5°C was considered significant. Incubation with 25µM Darapladib decreased the Tm of PRDX6 by 1.1 ± 0.2 °C.
(§3) It has been investigated whether co-treatment with Darapladib and ART could restore ART-susceptibility in the ring stage survival assay (RSA).
(§4) The survival rate for treatment with 1 µM Darapladib alone and 700 nM DHA alone was multiplied to calculate a theoretical survival rate if the effect of the combination was additive ("Calc. Additive"). The experimentally measured survival rate ("Measured") was divided by the calculated theoretical additive survival rate for the co-treatment. A ratio < 1 for Measured/Calc. indicates synergism, a ratio = 1 indicates an additive effect and a ratio > 1 indicates an antagonistic effect. Data are means ± SD of six independent experiments for NF54 C580Y and three independent experiments for 3815, unpaired t-test.

NF54 Kelch13^C580Y [2] = assay: Ring stage survival assay (RSA); format: cell-based, P. falciparum; conditions: mean ± SD of six experiments
Description: as §2, §3, §4

PRDX6 [3] = target: T1, PRDX6 (Homo sapiens, UniProt P30041); assay: SYPRO orange-based differential scanning fluorimetry (DSF) assay; format: binding; design: endogenous in cells; inferred to be P. falciparum-infected human red blood cells, because host and parasite proteins were profiled together; conditions: incubation with 25µM; ΔTm > 0.5°C considered significant
T1 sequence (P30041 1-224): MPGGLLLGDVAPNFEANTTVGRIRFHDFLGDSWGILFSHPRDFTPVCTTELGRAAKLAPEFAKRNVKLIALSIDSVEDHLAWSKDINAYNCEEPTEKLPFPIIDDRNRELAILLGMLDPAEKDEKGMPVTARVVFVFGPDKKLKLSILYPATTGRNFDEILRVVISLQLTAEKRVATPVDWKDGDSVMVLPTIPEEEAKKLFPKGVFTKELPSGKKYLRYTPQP
Description: as §1, with “Darapladib.” for “Darapladib. Darapladib inhibits PLA2 activity of PRDX6 with IC50 of ≈0.5µM. • Figure 4 is related to the co-treatment of ART-resistant parasites with artemisinin and Darapladib synergistically reduces parasite survival. (A) Ring stage survival assays (RSA) (Witkowski et al., Lancet Infect. Dis. 13, 1043-1049 (2013)) with Darapladib (Dar) and Dihydroartemisinin (DHA) against ART-resistant P. falciparum strains. For detailed data regarding synergism, cf. Table 1.”
Binding of the compounds of the invention to PRDX6 induces a significant shift in the melting temperature of PRDX6 which can be detected using the hydrophobic fluorescent dye SYPRO orange (Figure 5). […]

PRDX6 [4] = target: T1, PRDX6; assay: Activity-based protein profiling (ABPP), competition with the probe TAMRA-FP; format: binding; conditions: fluorescent labelling of PRDX6
Description: Darapladib has been assessed for the binding to the PLA2 active site of PRDX6 by activity-based protein profiling (ABPP) using recombinant human PRDX6 and the fluorescently tagged probe TAMRA-FP that covalently labels the serine in the PLA2 active site of PRDX6.

[5] = target: T2, phosphorylated recombinant human PRDX6 (Homo sapiens, UniProt P30041); assay: Radioactive PLA2 activity assay; format: biochemical; conditions: read-out: IC50 of inhibition of PLA2 activity of PRDX6
T2 sequence (P30041 1-224): T1 sequence (P30041 1-224)
Description: as §1, with “survival.” for “survival. (A) Ring stage survival assays (RSA) (Witkowski et al., Lancet Infect. Dis. 13, 1043-1049 (2013)) with Darapladib (Dar) and Dihydroartemisinin (DHA) against ART-resistant P. falciparum strains. For detailed data regarding synergism, cf. Table 1.”

3815 strain [6] = assay: Growth/Progression assay with continuous treatment; format: cell-based, P. falciparum; conditions: continuous treatment during the complete blood stage cycle
Description: as §1, with “survival.” for “survival. (A) Ring stage survival assays (RSA) (Witkowski et al., Lancet Infect. Dis. 13, 1043-1049 (2013)) with Darapladib (Dar) and Dihydroartemisinin (DHA) against ART-resistant P. falciparum strains. For detailed data regarding synergism, cf. Table 1.”

NF54 Kelch13^C580Y [7] = assay: Growth/Progression assay with continuous treatment; format: cell-based, P. falciparum; conditions: continuous treatment during the complete blood stage cycle
Description: as §1, with “survival.” for “survival. (A) Ring stage survival assays (RSA) (Witkowski et al., Lancet Infect. Dis. 13, 1043-1049 (2013)) with Darapladib (Dar) and Dihydroartemisinin (DHA) against ART-resistant P. falciparum strains. For detailed data regarding synergism, cf. Table 1.”

PRDX6 [8] = target: T1, PRDX6; assay: ITDR-CETSA (IsoThermal Dose Response-Cellular Thermal Shift Assay); format: cell-based; design: endogenous in cells; inferred to be P. falciparum-infected human red blood cells, because host and parasite proteins were profiled together; conditions: host and parasite proteins

Row | Structure (SMILES) | parasite development (P. falciparum 3D7; 3D7 cultures treated at the ring stage) | pIC50 (P. falciparum 3D7; ring stage to schizont, read-out: IC50 for parasite progression) | pIC50 (P. falciparum 3D7; whole cycle, ring to ring, read-out: IC50 for parasite growth) | Parasite survival, Drugs Alone, Dar 1µM (3815 strain [1]; 3815, 1 µM Darapladib alone) [%] | Parasite survival, Drugs Alone, Dar 1µM (NF54 Kelch13^C580Y [2]; 1 µM Darapladib alone) [%] | decrease of the Tm of PRDX6 (PRDX6 [3]) [°C] | binding to the PLA2 active site of PRDX6 (PRDX6 [4]) | pIC50 [5] | blood stage growth (3815 strain [6]) | blood stage growth (NF54 Kelch13^C580Y [7]) | specificity for PRDX6 (PRDX6 [8]) | Parasite survival, Drugs Alone, DHA (3815 strain [1]; 3815, 700 nM DHA alone) [%] | Parasite survival, Drugs Alone, DHA (NF54 Kelch13^C580Y [2]; 700 nM DHA alone) [%]
1 | CCN(CC)CCN(Cc1ccc(-c2ccc(C(F)(F)F)cc2)cc1)C(=O)Cn1c(SCc2ccc(F)cc2)nc(=O)c2c1CCC2 [Darapladib] | arrested parasite development at the trophozoite stage | 6.25 | 6.12 | 94.7 ± 3.2 | 89.0 ± 8.1 | 1.1 ± 0.2 | bound the PLA2 active site of PRDX6, competed with TAMRA-FP and reduced the fluorescent labelling of PRDX6 | ~6.30 | effectively blocked blood stage growth | effectively blocked blood stage growth | no other essential host or parasite protein is targeted | – | –
2 | C[C@H]1[C@@H](O)O[C@@H]2O[C@@]3(C)CC[C@H]4[C@H](C)CC[C@@H]1[C@@]24OO3 [DHA, Dihydroartemisinin] | – | – | – | – | – | – | – | – | – | – | – | 7.1 ± 0.9 | 7.9 ± 1.7
